Reference: US20240287138A1, “CYCLIC PEPTIDES FOR INHIBITING TNF RECEPTOR 1 ACTIVITY” (Merck Sharp & Dohme LLC, priority 2023, published 2024)
pIC50, pKd: −log10 of the molar value. Numbered stars: 1 amine (or outer) side, 2 acyl side, 3 side chain; on linkers, the order of the positions; unused ones are H or OH. Bridge positions count the residues as written; N and C are the ends. Square brackets hold non-standard residues; d marks the D form. Peptide text beside a SMILES is read from it. * marks the point of attachment. Trp(βS-Me,7-OMe) = COc1cccc2c([C@H](C)[C@H](N)C(=O)O)c[nH]c12; Trp(7-CN) = N#Cc1cccc2c(C[C@H](N)C(=O)O)c[nH]c12; Trp(7-Cl) = N[C@@H](Cc1c[nH]c2c(Cl)cccc12)C(=O)O; Phe(3-CONH2) = NC(=O)c1cccc(C[C@H](N)C(=O)O)c1; Phe(4-CONH2) = NC(=O)c1ccc(C[C@H](N)C(=O)O)cc1; Phe(4-COOH) = N[C@@H](Cc1ccc(C(=O)O)cc1)C(=O)O; Trp(7-aza) = N[C@@H](Cc1c[nH]c2ncccc12)C(=O)O; Phe(4-CH2NH2) = NCc1ccc(C[C@H](N)C(=O)O)cc1; dPro(trans-4-F) = O=C(O)[C@H]1C[C@H](F)CN1; Pip(5R-OH) = O=C(O)[C@@H]1CC[C@@H](O)CN1; X1 = O=C([C@@H]1CC[C@H](N[*:1])C1)[*:2]; Nle(5,5-F2) = CC(F)(F)CC[C@H](N)C(=O)O; NMeT = CN[C@H](C(=O)O)[C@@H](C)O; Pip(4-aza) = O=C(O)[C@@H]1CNCCN1; 4Pal = N[C@@H](Cc1ccncc1)C(=O)O; NMeE = CN[C@@H](CCC(=O)O)C(=O)O; αMeS = C[C@](N)(CO)C(=O)O; Carboxymethyl = O=C(O)C*; Nle = CCCC[C@H](N)C(=O)O; Sar = CNCC(=O)O

Key:
[1] = biological target: T1, human soluble TNFR1 (sTNFR1) (Homo sapiens, UniProt P19438); assay: Human sTNFR1-peptide displacement assay (LanthaScreen Eu TR-FRET binding assay)
T1 construct: made in house; host or cells: Sf21 (baculovirus)
T1 sequence (P19438 with tags, fused parts or gaps): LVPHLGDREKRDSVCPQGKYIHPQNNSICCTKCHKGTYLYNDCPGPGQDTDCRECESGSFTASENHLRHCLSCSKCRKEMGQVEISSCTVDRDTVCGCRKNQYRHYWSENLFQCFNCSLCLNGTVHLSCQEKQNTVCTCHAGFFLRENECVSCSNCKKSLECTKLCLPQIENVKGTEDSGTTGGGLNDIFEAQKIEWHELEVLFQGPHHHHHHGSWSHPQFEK
In short: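 Readout is the 665/615 nm TR-FRET ratio (Eu anti-His donor, streptavidin-Alexa647 acceptor), normalized to DMSO and saturating displacer, fit by Morrison-based five-parameter logistic for Kd^app. His-tagged sTNFR1 (1-211) prebound to 100 nM biotinylated peptide SEQ ID NO.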

[2] = biological target: T2, TNFα-induced NF-κB signal transduction pathway (TNFR1 signaling) in THP-1 cells (Homo sapiens, UniProt P19438); assay: THP-1 Lucia NF-κB reporter cell assay, inhibition of TNFα-induced NF-κB signaling; type: cell-based; conditions: THP-1 NF-κB Lucia reporter cells, 10 ng/mL TNFα, 16-18 h, secreted luciferase; read-out: THP-1 IC50
T2 sequence (P19438 30-455): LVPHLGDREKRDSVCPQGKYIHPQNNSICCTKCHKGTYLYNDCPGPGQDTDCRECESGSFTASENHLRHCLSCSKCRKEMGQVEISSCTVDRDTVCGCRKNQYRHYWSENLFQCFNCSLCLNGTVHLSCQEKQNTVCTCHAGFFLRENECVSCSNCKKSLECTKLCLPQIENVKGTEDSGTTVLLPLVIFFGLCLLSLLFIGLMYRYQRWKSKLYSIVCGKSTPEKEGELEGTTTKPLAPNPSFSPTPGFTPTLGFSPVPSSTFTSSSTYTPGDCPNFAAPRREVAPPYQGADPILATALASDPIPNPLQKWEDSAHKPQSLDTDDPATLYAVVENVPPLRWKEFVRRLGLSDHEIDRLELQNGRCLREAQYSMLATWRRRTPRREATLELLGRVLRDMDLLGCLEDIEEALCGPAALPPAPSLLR
In short: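 Read-out: secreted Lucia luciferase luminescence (QUANTI-Luc) from supernatant after 16-18 h, 37 °C, 10 ng/mL rhTNFα. Peptide pretreatment 1 h at 37 °C; 20,000 cells/well, selection antibiotics omitted. IC50 via 4-parameter logistic model against min/max controls.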

| SMILES | pKd [1] | pIC50 [2] |
| --- | --- | --- |
| CCCC[C@@H]1NC(=O)[C@@H]2CC[C@@H](C2)NC(=O)[C@H]([C@@H](C)c2c[nH]c3c(OC)cccc23)NC(=O)CN(C)C(=O)[C@H](Cc2cccc(C(N)=O)c2)NC(=O)[C@H](Cc2ccc(C(N)=O)cc2)NC(=O)[C@](C)(CO)NC(=O)[C@H](Cc2c[nH]c3c(C#N)cccc23)NC(=O)[C@H](Cc2ccc(C(=O)O)cc2)NC(=O)[C@H](CC(N)=O)NC(=O)[C@H]2C[C@H](F)CN2C(=O)[C@H](Cc2c[nH]c3ccccc23)NC(=O)[C@@H]2CC[C@@H](O)CN2C(=O)[C@H](Cc2ccncc2)NC1=O [SEQ ID NO. 21] (cyclo([4Pal][Pip(5R-OH)]W[dPro(trans-4-F)]N[Phe(4-COOH)][Trp(7-CN)][αMeS][Phe(4-CONH2)][Phe(3-CONH2)][Sar][Trp(βS-Me,7-OMe)][X1][Nle])) | 10.40 | 9.05 |
| CCCC[C@@H]1NC(=O)[C@@H]2CC[C@@H](C2)NC(=O)[C@H]([C@@H](C)c2c[nH]c3c(OC)cccc23)NC(=O)CN(C)C(=O)[C@H](Cc2ccc(O)cc2)NC(=O)[C@H](Cc2ccc(OCC(=O)O)cc2)NC(=O)[C@](C)(CO)NC(=O)[C@H](Cc2c[nH]c3c(Cl)cccc23)NC(=O)[C@H](Cc2ccncc2)NC(=O)[C@H](CC(N)=O)NC(=O)[C@H](CCC(=O)O)N(C)C(=O)[C@H](Cc2c[nH]c3ccccc23)NC(=O)[C@@H]2CNCCN2C(=O)[C@H](Cc2ccncc2)NC1=O [SEQ ID NO. 80] (cyclo([4Pal][Trp(7-Cl)][αMeS]Y(Carboxymethyl)Y[Sar][Trp(βS-Me,7-OMe)][X1][Nle][4Pal][Pip(4-aza)]W[NMeE]N)) | 9.52 | 8.92 |
| CCCC[C@@H]1NC(=O)CSC[C@@H](C(N)=O)NC(=O)[C@H]([C@@H](C)c2c[nH]c3c(OC)cccc23)NC(=O)CN(C)C(=O)[C@H](Cc2ccc(O)cc2)NC(=O)[C@H](Cc2ccc(C(=O)O)cc2)NC(=O)[C@](C)(CO)NC(=O)[C@H](Cc2c[nH]c3c(Cl)cccc23)NC(=O)[C@H](Cc2ccncc2)NC(=O)[C@H](CC(N)=O)NC(=O)[C@H](CCC(=O)O)N(C)C(=O)[C@H](Cc2c[nH]c3ncccc23)NC(=O)[C@H]([C@@H](C)O)N(C)C(=O)[C@H](Cc2ccncc2)NC1=O [SEQ ID NO. 29] ({CH2CO}-[Nle][4Pal][NMeT][Trp(7-aza)][NMeE]N[4Pal][Trp(7-Cl)][αMeS][Phe(4-COOH)]Y[Sar][Trp(βS-Me,7-OMe)]C-NH2; thioether N-14) | 9.19 | 8.48 |
| CCCC[C@@H]1NC(=O)[C@@H]2CC[C@@H](C2)NC(=O)[C@H]([C@@H](C)c2c[nH]c3c(OC)cccc23)NC(=O)CN(C)C(=O)[C@H](Cc2ccc(CN)cc2)NC(=O)[C@H](Cc2ccc(C(=O)O)cc2)NC(=O)[C@](C)(CO)NC(=O)[C@H](Cc2c[nH]c3c(Cl)cccc23)NC(=O)[C@H](Cc2ccncc2)NC(=O)[C@H](CC(N)=O)NC(=O)[C@H](CCC(=O)O)N(C)C(=O)[C@H](Cc2c[nH]c3ccccc23)NC(=O)[C@@H]2CNCCN2C(=O)[C@H](Cc2ccncc2)NC1=O [SEQ ID NO. 269] (cyclo([4Pal][Trp(7-Cl)][αMeS][Phe(4-COOH)][Phe(4-CH2NH2)][Sar][Trp(βS-Me,7-OMe)][X1][Nle][4Pal][Pip(4-aza)]W[NMeE]N)) | 10.10 | 9.00 |
| COc1cccc2c([C@H](C)[C@@H]3NC(=O)CN(C)C(=O)[C@H](Cc4ccc(O)cc4)NC(=O)[C@H](Cc4ccc(C(=O)O)cc4)NC(=O)[C@](C)(CO)NC(=O)[C@H](Cc4c[nH]c5c(Cl)cccc45)NC(=O)[C@H](Cc4ccncc4)NC(=O)[C@H](CC(N)=O)NC(=O)[C@H](CCC(=O)O)N(C)C(=O)[C@H](Cc4c[nH]c5ccccc45)NC(=O)[C@@H]4CNCCN4C(=O)[C@H](Cc4ccncc4)NC(=O)[C@H](CCC(C)(F)F)NC(=O)[C@@H]4CC[C@@H](C4)NC3=O)c[nH]c12 [SEQ ID NO. 275] (cyclo([4Pal][Trp(7-Cl)][αMeS][Phe(4-COOH)]Y[Sar][Trp(βS-Me,7-OMe)][X1][Nle(5,5-F2)][4Pal][Pip(4-aza)]W[NMeE]N)) | 9.44 | 8.85 |
